Values quoted from earlier work in paper PMC9697394, “Recent Synthesis, Characterization, and Pharmacological Evaluation of Multifunctional Hemorphins Containing Non-Natural Amino Acids with Potential Biological Importance” (Pharmaceuticals, 2022).
Where two headings read alike, the source gives them in different places. Where no end group is shown, it is not given here. [ ]: non-standard residue; d: D form. Ac6c = NC1(C(=O)O)CCCCC1; Orn = NCCC[C@H](N)C(=O)O; Ac5c = NC1(C(=O)O)CCCC1; Dab = NCC[C@H](N)C(=O)O; Dap = NC[C@H](N)C(=O)O; Aib = CC(C)(N)C(=O)O; Sar = CNCC(=O)O

Columns and labels:
mice [1] = conditions: MES test in mice
mice [2] = conditions: rotarod
[3] = by potentiometric titration
Excerpt: Table 6 Parameters of the voltammetric measurements and the electrochemical data of peptides. | column: pKa1; pKa2 Constants

[4] = for isoelectric point (pI): Figure 6; for charge at pH 7.4 (in words): based on pKa constants and isoelectric points
Excerpt: The structure–activity relationship of a series of new analogs of the shortest of all hemorphins, hemorphin-4, was elucidated by Todorov et al. (compounds P4-1, P4-2, P4-3, P4-4, and P4-5). Modifications have been made by replacing Pro at position 2 with the unnatural and conformationally restricted amino acids Ac5c and Ac6c, as well as introducing the adamantane residue from the N-terminus of the hemorphin-4 molecule that would lead to multiple target systems. […] It is known that some identical amino acid residues can have different reactivity with respect to given chemical reagents. For example, in an enzyme molecule, only one or a small number of side chains of amino acid residues located in the “active” center can bind substrates or coenzymes, while others with the same chemical composition cannot. As is known, a large part of the hydro ...

mice [5] = conditions: 6 Hz test in mice, TPE 10 min
Excerpt: Modifications have been made by replacing Pro at position 2 with the unnatural and conformationally restricted amino acids Ac5c and Ac6c, as well as introducing the adamantane residue from the N-terminus of the hemorphin-4 molecule that would lead to multiple target systems.

rat [6] = conditions: rat blood pressure assay
Excerpt: Table 5 Bioactive hemorphin peptides. | column: Concentration/Dose; Effect

rat [7] = conditions: Barnes circular maze in rat; 100 pmol
Excerpt: (§1) Table 5 Bioactive hemorphin peptides. | column: Effect

[8] = at the spinal level; 27.2 nmol i.t.
Excerpt: as §1

WK rats and SHRs = conditions: radiotelemetry in WK rats and SHRs; 100 µg/kg
Excerpt: as §1

[9] = system: rat locus coeruleus neurons; conditions: in vitro LC neurons; read-out: IC50, inhibition of the spontaneous firing
Excerpt: (§2) Table 5 Bioactive hemorphin peptides. | column: Concentration/Dose

[10] = system: guinea pig ileum muscle preparation; conditions: merged cell of Table 5, read-out: IC50, inhibition of the electrically induced contractions
Excerpt: as §2

rat mu-opioid receptor = conditions: merged cell of Table 5; read-out: IC50, binds to rat mu-opioid receptor
Excerpt: as §2

mice; rat = conditions: hot plate, tail flick test in mice; Randall–Selitto test in rat
Excerpt: as §1

[11] = system: tumor (L929 and A549) cell cultures; conditions: 0.5 µM epirubicin added 24 h prior to 1 µM valorphin; 1 µM valorphin added 48 h prior to 0.1 µM epirubicin
Excerpt: as §1

[12] = system: cerebellar Purkinje cells; conditions: in vitro cerebellar Purkinje cells
Excerpt: as §1

[13] = system: L929 and K562 tumor cells; conditions: 10^−7–10^−13 M concentration range
Excerpt: as §1

mice [14] = conditions: ivPTZ seizure test in mice; TPE 10 min; rank order, hemorphin-7 analogs containing unnatural amino acids
Excerpt: Moreover, this peptide analog had the lowest ...

[15] = TPE 10 min, hemorphin-4 analogs
[16] = Table 2 (MES), TPE 10 min, hemorphin-4 analogs, unit inferred
[17] = TPE 10 min, LVV- and VV-hemorphin-7 analogs
[18] = Table 2 (MES), LVV- and VV-hemorphin-7 analogs, unit inferred
[19] = TPE 10 min, VV-hemorphin-5 analogs
[20] = Table 2 (MES), VV-hemorphin-5 analogs, unit inferred
[21] = LVV- and VV-hemorphin-7 analogs
[22] = VV-hemorphin-7 analogs containing unnatural amino acids

O=C1NC(=O)C(c2ccccc2)(c2ccccc2)N1 [Phenytoin, 5,5′-diphenylhydantoin, reference compound]
ED50 (median effective dose) (mice [1]; TPE 60 min, reference drug, ref not given): 4.92 mg/kg
TD50 (median minimal neurotoxic dose) (mice [2]; TPE 60 min, Table 2, ref not given): >100 mg/kg

Aaa-Tyr-Ac5c-Trp-Thr-NH2 [P4-4]
pKa1 [3]: 6.16
pKa2 [3]: 8.90
ED50 (median effective dose) (mice [1]; [15]): 2.33 µg
isoelectric point (pI) [4]: about 7
charge at pH 7.4 (in words) [4]: positively charged
TD50 (median minimal neurotoxic dose) (mice [2]; [16]): > 10 mg/kg
ED50 (median effective dose) (mice [5]; hemorphin-4 analogs): 0.44 µg

Aaa-Tyr-Ac6c-Trp-Thr-NH2 [P4-5]
pKa1 [3]: 6.20
pKa2 [3]: 9.06
ED50 (median effective dose) (mice [1]; [15]): 0.41 µg
isoelectric point (pI) [4]: about 7
charge at pH 7.4 (in words) [4]: positively charged
TD50 (median minimal neurotoxic dose) (mice [2]; [16]): > 10 mg/kg
ED50 (median effective dose) (mice [5]; hemorphin-4 analogs): 0.64 µg

Aaa-Tyr-Pro-Trp-Thr-NH2 [P4-3]
pKa1 [3]: 3.88
pKa2 [3]: 6.93
ED50 (median effective dose) (mice [1]; [15]): 1.66 µg
TD50 (median minimal neurotoxic dose) (mice [2]; [16]): > 10 mg/kg
ED50 (median effective dose) (mice [5]; hemorphin-4 analogs): 0.83 µg

D-Leu-Val-Val-Tyr-Pro-Trp-Thr-Gln-Arg-D-Phe-NH2 [H7-3]
pKa1 [3]: 3.05
pKa2 [3]: 6.78
ED50 (median effective dose) (mice [1]; [17]): 0.68 µg
TD50 (median minimal neurotoxic dose) (mice [2]; [18]): > 8 mg/kg

DGRVVYPWTQRFRGD-NH2 [RGD2]
pKa1 [3]: 3.48
pKa2 [3]: 6.34

IVVYPWTQ-NH2 [V6]
pKa constant (one value given) [3]: 8.01, [48, 49]
ED50 (median effective dose) (mice [1]; [19]): 16.77 µg
TD50 (median minimal neurotoxic dose) (mice [2]; [20]): > 20 mg/kg
ED50 (median effective dose) (mice [5]; VV-hemorphin-5 analogs): 5.55 µg

IVVYPWTQR[dF]-NH2 [H7-1]
pKa1 [3]: 2.98
pKa2 [3]: 6.12
ED50 (median effective dose) (mice [5]; [21]): 0.33 µg

IVYPWTQR[dF]-NH2 [H7-2]
pKa1 [3]: 3.09
pKa2 [3]: 6.62
ED50 (median effective dose) (mice [1]; [17]): 0.94 µg
TD50 (median minimal neurotoxic dose) (mice [2]; [18]): > 8 mg/kg
ED50 (median effective dose) (mice [5]; [21]): 2.6 µg

Leu-Val-Val-Tyr-Pro-Trp-Thr-Gln-Arg-Phe [LVV-hemorphin-7]
cardiovascular activity (in words) (rat [6]): pressor and tachycardic activities mediated by the SNS
ED25 (rat [6]; pressor activity): 128.0 nmol/kg
effect on spatial learning (in words) (rat [7]): enhanced spatial learning
effect on carrageenan-induced hyperalgesia (in words) [8]: decrease
effect on blood pressure (in words) (WK rats and SHRs): Reduce blood pressure

Tyr-D-Arg-Phe-Lys-NH2 [DALDA]
IC50 [9]: 20 nM

Tyr-Pro-Leu-Gly-NH2 [Tyr-MIF-1]
IC50 [9]: 37500 nM

Tyr-Pro-Phe-Phe-NH2 [endomorphin-2]
IC50 [9]: 5.3 nM

Tyr-Pro-Phe-Pro-NH2 [morphiceptin]
IC50 [9]: 65 nM

Tyr-Pro-Trp-Gly-NH2 [Tyr-W-MIF-I]
IC50 [9]: 3800 nM

Tyr-Pro-Trp-Phe-NH2 [endomorphin-1]
IC50 [9]: 8.8 nM

Tyr-Pro-Trp-Thr [hemorphin-4]
IC50 [9]: 6700 nM

VVYPWTK-NH2 [V5]
pKa constant (one value given) [3]: 8.24, [48, 49]
ED50 (median effective dose) (mice [1]; [19]): 3.19 µg
TD50 (median minimal neurotoxic dose) (mice [2]; [20]): > 20 mg/kg
ED50 (median effective dose) (mice [5]; VV-hemorphin-5 analogs): 9.89 µg

VVYPWTQ [Valorphin]
IC50 [10]: 10000 nM
IC50 (rat mu-opioid receptor): 14 nM
analgesic effect (in words) (mice; rat): opioid analgesic activity
cell death [11]: 100%
effect on spontaneous firing (in words) [12]: inhibition of the spontaneous firing
effect on tumor cells (in words) [13]: Tumor cell cytolysis

VVYPWTQRFRGD-NH2 [RGD1]
pKa1 [3]: 3.53
pKa2 [3]: 6.42

VVYPWT[Dab]-NH2 [V3]
pKa constant (one value given) [3]: 8.12, [48, 49]

VVYPWT[Dab]RF-NH2 [VV-H-5]
pKa (Dap, Dab) [3]: 7.21
pKa (Tyr) [3]: 5.98
pKa (Val) [3]: 8.08
ED50 (median effective dose) (mice [5]; [22]): 0.89 µg

VVYPWT[Dap]-NH2 [V2]
pKa constant (one value given) [3]: 9.23, [48, 49]
ED50 (median effective dose) (mice [5]; VV-hemorphin-5 analogs): 9.97 µg

VVYPWT[Dap]RF-NH2 [VV-H-4]
pKa (Dap, Dab) [3]: 5.46
pKa (Tyr) [3]: 3.14
pKa (Val) [3]: 7.10
Comparison of Activity Related to the Threshold Dose (µg/10 µL) for Clonic Seizures (mice [14]): VV–H7 = V–H4
ED50 (median effective dose) (mice [5]; [22]): 3.83 µg

VVYPWT[Orn]-NH2 [V4]
pKa constant (one value given) [3]: 7.83, [48, 49]
ED50 (median effective dose) (mice [1]; [19]): 3.63 µg
TD50 (median minimal neurotoxic dose) (mice [2]; [20]): > 20 mg/kg
ED50 (median effective dose) (mice [5]; VV-hemorphin-5 analogs): 5.09 µg

VVY[Ac5c]WTQRF-NH2 [VV-H-2]
pKa (Tyr) [3]: 5.34
pKa (Val) [3]: 8.04
ED50 (median effective dose) (mice [5]; [22]): 5.69 µg

VVY[Ac5c]WT[Dab]RF-NH2 [VV-H-7]
pKa (Dap, Dab) [3]: 7.26
pKa (Tyr) [3]: 4.70
pKa (Val) [3]: 8.21
ED50 (median effective dose) (mice [5]; [22]): 0.89 µg

VVY[Ac5c]WT[Dap]RF-NH2 [VV-H-6]
pKa (Dap, Dab) [3]: 6.87
pKa (Tyr) [3]: 4.72
pKa (Val) [3]: 8.15

VVY[Ac6c]WTQRF-NH2 [VV-H-3]
pKa (Tyr) [3]: 4.83
pKa (Val) [3]: 7.49
ED50 (median effective dose) (mice [5]; [22]): 5.69 µg

VVY[Ac6c]WT[Dab]RF-NH2 [VV-H-9]
pKa (Dap, Dab) [3]: 8.80
pKa (Tyr) [3]: 4.66
pKa (Val) [3]: 9.08
ED50 (median effective dose) (mice [5]; [22]): 1.09 µg

VVY[Ac6c]WT[Dap]RF-NH2 [VV-H-8]
pKa (Dap, Dab) [3]: 8.03
pKa (Tyr) [3]: 5.27
pKa (Val) [3]: 9.20
ED50 (median effective dose) (mice [5]; [22]): 1.01 µg

Y[Ac5c]WT-NH2 [P4-1]
pKa1 [3]: 3.89
pKa2 [3]: 6.52
ED50 (median effective dose) (mice [5]; hemorphin-4 analogs): 0.52 µg

Y[Ac6c]WT-NH2 [P4-2]
pKa1 [3]: 3.93
pKa2 [3]: 6.71
ED50 (median effective dose) (mice [1]; [15]): 2.33 µg
TD50 (median minimal neurotoxic dose) (mice [2]; [16]): > 10 mg/kg
ED50 (median effective dose) (mice [5]; hemorphin-4 analogs): 2.16 µg

Y[dR]F[Sar] [TAPS]
IC50 [9]: 1.9 nM

[Aib]VVYPWTQ-NH2 [V7]
pKa constant (one value given) [3]: 8.17, [48, 49]
ED50 (median effective dose) (mice [1]; [19]): 16.55 µg
TD50 (median minimal neurotoxic dose) (mice [2]; [20]): > 20 mg/kg
ED50 (median effective dose) (mice [5]; VV-hemorphin-5 analogs): 6.61 µg

[dV]VYPWTQR[dF]-NH2 [H7-4]
pKa1 [3]: 3.22
pKa2 [3]: 6.52
ED50 (median effective dose) (mice [1]; [17]): 2.54 µg
TD50 (median minimal neurotoxic dose) (mice [2]; [18]): > 15 mg/kg

rhodamineB-Gly-Tyr-Pro-Trp-Thr-NH2 [Rh-1]
pKa1 [3]: 2.81
pKa2 [3]: 6.60

rhodamineB-β-Ala-Tyr-Pro-Trp- Thr-NH2 [Rh-2]
pKa1 [3]: 2.78
pKa2 [3]: 6.38

rhodamineB-γ-Abu-Tyr-Pro-Trp-Thr-NH2 [Rh-3]
pKa1 [3]: 2.86
pKa2 [3]: 6.39
